Test results: the supplement of paper PMC4862054

test system: CAL-120; assay: normalised viability (% of control), CellTiter-Blue; higher = more viable cells (100 = DMSO, 0 = benzethonium chloride kill control); conditions: incubation time: 72 h
Method in brief: (§1)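 Seeded at 20 µl suspension per well onto compound-loaded 384-well plates, breast cancer cell lines were incubated 72 h. CellTiter-Blue fluorescence at 560/590 nm was then read, with each plate normalised to vehicle (100) and a positive kill control (0). Normalised viability is reported at a single listed concentration of the series.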

SMILES	normalised viability
CCS(=O)(=O)c1cccc(-c2cc(C(=O)NC3CCN(C)CC3)c(C)c3[nH]c4ncc(C)cc4c23)c1 [TAK-901] (0.1 nM)	87.2%
C#Cc1cccc(Nc2ncnc3cc(OC)c(OCCCCCCC(=O)NO)cc23)c1 [CUDC-101] (1 nM)	79.4%
CC(C)C[C@H](NC(=O)[C@H](Cc1ccccc1)NC(=O)c1cnccn1)B(O)O [Bortezomib] (0.1 nM)	98.8%
COc1ccc(C2=N[C@@H](c3ccc(Cl)cc3)[C@@H](c3ccc(Cl)cc3)N2C(=O)N2CCNC(=O)C2)c(OC(C)C)c1 [Nutlin-3] (1 nM)	78.7%
Cn1c(=O)c(F)c(Nc2ccc(I)cc2F)c2c(=O)n(C[C@@H](O)CO)cnc21 [TAK-733] (0.1 nM)	87.1%
COC(=O)C[C@](O)(CCCC(C)(C)O)C(=O)O[C@@H]1C(OC)=C[C@]23CCCN2CCc2cc4c(cc2[C@H]13)OCO4 [Omacetaxine] (1 nM)	82%
CC(C)(C)c1cc(NC(=O)Nc2ccc(-c3cn4c(n3)sc3cc(OCCN5CCOCC5)ccc34)cc2)no1 [Quizartinib] (0.1 nM)	99.7%
C[C@@H]1C=C2C(=O)O[C@@H]3CC[C@H](C1)[C@]23O [Galiellalactone] (5 nM)	81.3%

test system: MDA-MB-468; assay: as above; conditions: incubation time: 72 h
Method in brief: as §1

SMILES	normalised viability
CCS(=O)(=O)c1cccc(-c2cc(C(=O)NC3CCN(C)CC3)c(C)c3[nH]c4ncc(C)cc4c23)c1 [TAK-901] (0.1 nM)	95.9%
C#Cc1cccc(Nc2ncnc3cc(OC)c(OCCCCCCC(=O)NO)cc23)c1 [CUDC-101] (1 nM)	94.4%
CC(C)C[C@H](NC(=O)[C@H](Cc1ccccc1)NC(=O)c1cnccn1)B(O)O [Bortezomib] (0.1 nM)	91.8%
COc1ccc(C2=N[C@@H](c3ccc(Cl)cc3)[C@@H](c3ccc(Cl)cc3)N2C(=O)N2CCNC(=O)C2)c(OC(C)C)c1 [Nutlin-3] (1 nM)	92.8%
Cn1c(=O)c(F)c(Nc2ccc(I)cc2F)c2c(=O)n(C[C@@H](O)CO)cnc21 [TAK-733] (0.1 nM)	95.8%
COC(=O)C[C@](O)(CCCC(C)(C)O)C(=O)O[C@@H]1C(OC)=C[C@]23CCCN2CCc2cc4c(cc2[C@H]13)OCO4 [Omacetaxine] (1 nM)	95.2%
CC(C)(C)c1cc(NC(=O)Nc2ccc(-c3cn4c(n3)sc3cc(OCCN5CCOCC5)ccc34)cc2)no1 [Quizartinib] (0.1 nM)	92.3%
C[C@@H]1C=C2C(=O)O[C@@H]3CC[C@H](C1)[C@]23O [Galiellalactone] (5 nM)	96.7%

test system: HCC1143; assay: as above; conditions: incubation time: 72 h
Method in brief: as §1

SMILES	normalised viability
CCS(=O)(=O)c1cccc(-c2cc(C(=O)NC3CCN(C)CC3)c(C)c3[nH]c4ncc(C)cc4c23)c1 [TAK-901] (0.1 nM)	94.9%
C#Cc1cccc(Nc2ncnc3cc(OC)c(OCCCCCCC(=O)NO)cc23)c1 [CUDC-101] (1 nM)	79.9%
CC(C)C[C@H](NC(=O)[C@H](Cc1ccccc1)NC(=O)c1cnccn1)B(O)O [Bortezomib] (0.1 nM)	98.8%
COc1ccc(C2=N[C@@H](c3ccc(Cl)cc3)[C@@H](c3ccc(Cl)cc3)N2C(=O)N2CCNC(=O)C2)c(OC(C)C)c1 [Nutlin-3] (1 nM)	89.8%
Cn1c(=O)c(F)c(Nc2ccc(I)cc2F)c2c(=O)n(C[C@@H](O)CO)cnc21 [TAK-733] (0.1 nM)	101%
COC(=O)C[C@](O)(CCCC(C)(C)O)C(=O)O[C@@H]1C(OC)=C[C@]23CCCN2CCc2cc4c(cc2[C@H]13)OCO4 [Omacetaxine] (1 nM)	91.7%
CC(C)(C)c1cc(NC(=O)Nc2ccc(-c3cn4c(n3)sc3cc(OCCN5CCOCC5)ccc34)cc2)no1 [Quizartinib] (0.1 nM)	99.6%
C[C@@H]1C=C2C(=O)O[C@@H]3CC[C@H](C1)[C@]23O [Galiellalactone] (5 nM)	98.9%

test system: CAL-148; assay: as above; conditions: incubation time: 72 h
Method in brief: as §1

SMILES	normalised viability
CCS(=O)(=O)c1cccc(-c2cc(C(=O)NC3CCN(C)CC3)c(C)c3[nH]c4ncc(C)cc4c23)c1 [TAK-901] (0.1 nM)	102%
C#Cc1cccc(Nc2ncnc3cc(OC)c(OCCCCCCC(=O)NO)cc23)c1 [CUDC-101] (1 nM)	97.1%
CC(C)C[C@H](NC(=O)[C@H](Cc1ccccc1)NC(=O)c1cnccn1)B(O)O [Bortezomib] (0.1 nM)	104%
COc1ccc(C2=N[C@@H](c3ccc(Cl)cc3)[C@@H](c3ccc(Cl)cc3)N2C(=O)N2CCNC(=O)C2)c(OC(C)C)c1 [Nutlin-3] (1 nM)	104%
Cn1c(=O)c(F)c(Nc2ccc(I)cc2F)c2c(=O)n(C[C@@H](O)CO)cnc21 [TAK-733] (0.1 nM)	105%
COC(=O)C[C@](O)(CCCC(C)(C)O)C(=O)O[C@@H]1C(OC)=C[C@]23CCCN2CCc2cc4c(cc2[C@H]13)OCO4 [Omacetaxine] (1 nM)	107%
CC(C)(C)c1cc(NC(=O)Nc2ccc(-c3cn4c(n3)sc3cc(OCCN5CCOCC5)ccc34)cc2)no1 [Quizartinib] (0.1 nM)	105%
C[C@@H]1C=C2C(=O)O[C@@H]3CC[C@H](C1)[C@]23O [Galiellalactone] (5 nM)	115%

test system: MDA-MB-453; assay: as above; conditions: incubation time: 72 h
Method in brief: as §1

SMILES	normalised viability
CCS(=O)(=O)c1cccc(-c2cc(C(=O)NC3CCN(C)CC3)c(C)c3[nH]c4ncc(C)cc4c23)c1 [TAK-901] (0.1 nM)	96.1%
C#Cc1cccc(Nc2ncnc3cc(OC)c(OCCCCCCC(=O)NO)cc23)c1 [CUDC-101] (1 nM)	88%
CC(C)C[C@H](NC(=O)[C@H](Cc1ccccc1)NC(=O)c1cnccn1)B(O)O [Bortezomib] (0.1 nM)	101%
COc1ccc(C2=N[C@@H](c3ccc(Cl)cc3)[C@@H](c3ccc(Cl)cc3)N2C(=O)N2CCNC(=O)C2)c(OC(C)C)c1 [Nutlin-3] (1 nM)	102%
Cn1c(=O)c(F)c(Nc2ccc(I)cc2F)c2c(=O)n(C[C@@H](O)CO)cnc21 [TAK-733] (0.1 nM)	111%
COC(=O)C[C@](O)(CCCC(C)(C)O)C(=O)O[C@@H]1C(OC)=C[C@]23CCCN2CCc2cc4c(cc2[C@H]13)OCO4 [Omacetaxine] (1 nM)	91.6%
CC(C)(C)c1cc(NC(=O)Nc2ccc(-c3cn4c(n3)sc3cc(OCCN5CCOCC5)ccc34)cc2)no1 [Quizartinib] (0.1 nM)	113%
C[C@@H]1C=C2C(=O)O[C@@H]3CC[C@H](C1)[C@]23O [Galiellalactone] (5 nM)	97%

test system: MFM-223; assay: as above; conditions: incubation time: 72 h
Method in brief: as §1

SMILES	normalised viability
CCS(=O)(=O)c1cccc(-c2cc(C(=O)NC3CCN(C)CC3)c(C)c3[nH]c4ncc(C)cc4c23)c1 [TAK-901] (0.1 nM)	96.7%
C#Cc1cccc(Nc2ncnc3cc(OC)c(OCCCCCCC(=O)NO)cc23)c1 [CUDC-101] (1 nM)	78%
CC(C)C[C@H](NC(=O)[C@H](Cc1ccccc1)NC(=O)c1cnccn1)B(O)O [Bortezomib] (0.1 nM)	101%
COc1ccc(C2=N[C@@H](c3ccc(Cl)cc3)[C@@H](c3ccc(Cl)cc3)N2C(=O)N2CCNC(=O)C2)c(OC(C)C)c1 [Nutlin-3] (1 nM)	89.4%
Cn1c(=O)c(F)c(Nc2ccc(I)cc2F)c2c(=O)n(C[C@@H](O)CO)cnc21 [TAK-733] (0.1 nM)	99.9%
COC(=O)C[C@](O)(CCCC(C)(C)O)C(=O)O[C@@H]1C(OC)=C[C@]23CCCN2CCc2cc4c(cc2[C@H]13)OCO4 [Omacetaxine] (1 nM)	90.3%
CC(C)(C)c1cc(NC(=O)Nc2ccc(-c3cn4c(n3)sc3cc(OCCN5CCOCC5)ccc34)cc2)no1 [Quizartinib] (0.1 nM)	81.8%
C[C@@H]1C=C2C(=O)O[C@@H]3CC[C@H](C1)[C@]23O [Galiellalactone] (5 nM)	102%

test system: HCC1937; assay: as above; conditions: incubation time: 72 h
Method in brief: as §1

SMILES	normalised viability
CCS(=O)(=O)c1cccc(-c2cc(C(=O)NC3CCN(C)CC3)c(C)c3[nH]c4ncc(C)cc4c23)c1 [TAK-901] (0.1 nM)	105%
C#Cc1cccc(Nc2ncnc3cc(OC)c(OCCCCCCC(=O)NO)cc23)c1 [CUDC-101] (1 nM)	85.9%
CC(C)C[C@H](NC(=O)[C@H](Cc1ccccc1)NC(=O)c1cnccn1)B(O)O [Bortezomib] (0.1 nM)	82.9%
COc1ccc(C2=N[C@@H](c3ccc(Cl)cc3)[C@@H](c3ccc(Cl)cc3)N2C(=O)N2CCNC(=O)C2)c(OC(C)C)c1 [Nutlin-3] (1 nM)	71.5%
Cn1c(=O)c(F)c(Nc2ccc(I)cc2F)c2c(=O)n(C[C@@H](O)CO)cnc21 [TAK-733] (0.1 nM)	88.7%
COC(=O)C[C@](O)(CCCC(C)(C)O)C(=O)O[C@@H]1C(OC)=C[C@]23CCCN2CCc2cc4c(cc2[C@H]13)OCO4 [Omacetaxine] (1 nM)	96.5%
CC(C)(C)c1cc(NC(=O)Nc2ccc(-c3cn4c(n3)sc3cc(OCCN5CCOCC5)ccc34)cc2)no1 [Quizartinib] (0.1 nM)	109%
C[C@@H]1C=C2C(=O)O[C@@H]3CC[C@H](C1)[C@]23O [Galiellalactone] (5 nM)	84.3%

test system: BT-549; assay: as above; conditions: incubation time: 72 h
Method in brief: as §1

SMILES	normalised viability
CCS(=O)(=O)c1cccc(-c2cc(C(=O)NC3CCN(C)CC3)c(C)c3[nH]c4ncc(C)cc4c23)c1 [TAK-901] (0.1 nM)	112%
C#Cc1cccc(Nc2ncnc3cc(OC)c(OCCCCCCC(=O)NO)cc23)c1 [CUDC-101] (1 nM)	96%
CC(C)C[C@H](NC(=O)[C@H](Cc1ccccc1)NC(=O)c1cnccn1)B(O)O [Bortezomib] (0.1 nM)	82.3%
COc1ccc(C2=N[C@@H](c3ccc(Cl)cc3)[C@@H](c3ccc(Cl)cc3)N2C(=O)N2CCNC(=O)C2)c(OC(C)C)c1 [Nutlin-3] (1 nM)	107%
Cn1c(=O)c(F)c(Nc2ccc(I)cc2F)c2c(=O)n(C[C@@H](O)CO)cnc21 [TAK-733] (0.1 nM)	101%
COC(=O)C[C@](O)(CCCC(C)(C)O)C(=O)O[C@@H]1C(OC)=C[C@]23CCCN2CCc2cc4c(cc2[C@H]13)OCO4 [Omacetaxine] (1 nM)	95.4%
CC(C)(C)c1cc(NC(=O)Nc2ccc(-c3cn4c(n3)sc3cc(OCCN5CCOCC5)ccc34)cc2)no1 [Quizartinib] (0.1 nM)	92.8%
C[C@@H]1C=C2C(=O)O[C@@H]3CC[C@H](C1)[C@]23O [Galiellalactone] (5 nM)	112%

test system: Hs578T; assay: as above; conditions: incubation time: 72 h
Method in brief: as §1

SMILES	normalised viability
CCS(=O)(=O)c1cccc(-c2cc(C(=O)NC3CCN(C)CC3)c(C)c3[nH]c4ncc(C)cc4c23)c1 [TAK-901] (0.1 nM)	109%
C#Cc1cccc(Nc2ncnc3cc(OC)c(OCCCCCCC(=O)NO)cc23)c1 [CUDC-101] (1 nM)	94.9%
CC(C)C[C@H](NC(=O)[C@H](Cc1ccccc1)NC(=O)c1cnccn1)B(O)O [Bortezomib] (0.1 nM)	96.4%
COc1ccc(C2=N[C@@H](c3ccc(Cl)cc3)[C@@H](c3ccc(Cl)cc3)N2C(=O)N2CCNC(=O)C2)c(OC(C)C)c1 [Nutlin-3] (1 nM)	95.9%
Cn1c(=O)c(F)c(Nc2ccc(I)cc2F)c2c(=O)n(C[C@@H](O)CO)cnc21 [TAK-733] (0.1 nM)	128%
COC(=O)C[C@](O)(CCCC(C)(C)O)C(=O)O[C@@H]1C(OC)=C[C@]23CCCN2CCc2cc4c(cc2[C@H]13)OCO4 [Omacetaxine] (1 nM)	106%
CC(C)(C)c1cc(NC(=O)Nc2ccc(-c3cn4c(n3)sc3cc(OCCN5CCOCC5)ccc34)cc2)no1 [Quizartinib] (0.1 nM)	120%
C[C@@H]1C=C2C(=O)O[C@@H]3CC[C@H](C1)[C@]23O [Galiellalactone] (5 nM)	109%

test system: MDA-MB-436; assay: as above; conditions: incubation time: 72 h
Method in brief: as §1

SMILES	normalised viability
CCS(=O)(=O)c1cccc(-c2cc(C(=O)NC3CCN(C)CC3)c(C)c3[nH]c4ncc(C)cc4c23)c1 [TAK-901] (0.1 nM)	108%
C#Cc1cccc(Nc2ncnc3cc(OC)c(OCCCCCCC(=O)NO)cc23)c1 [CUDC-101] (1 nM)	96.4%
